Measurements: US11130959B2, “Methods and compositions for combinations of mutations associated with herbicide resistance/tolerance in rice” (priority 2016, dated 2021)

Assays:
[1] = tested on: rice line PL1214418M2-73009 and new lines that inherited the ACCase tolerance; assay: Trial of recovery of ACCase tolerance in the combined line; assay type: in vivo, Oryza sativa; conditions: 0.5×, 1×, 2×, 4× of label rate
Protocol: Another trial was conducted to confirm recovery of the ACCase inhibitor resistance from the RTA1 mutation as in the line ML0831265-01493. In this trial the new line PL1214418-73009 with combined HPPD and ACCase tolerance was planted in a row along with other various lines including the original donor line ML0831265-01493 (planted in a plot), ML0831266-03093, P1003, R0146 parent line for ACCase tolerance. The lines were all tested with the ACCase herbicides fluazifop at 0.5×, 1×, 2×, and 4× multiples of the label application rate (210 gmai/ha) and quizalofop at 0.5×, 1×, 2×, and 4× multiples of the label application rate (77 gmai/ha).

[2] = tested on: rice line ML0831265-02283 (RTA2); assay: Field validation of tolerance to ACCase herbicide, percent injury 21 days after application; assay type: in vivo, Oryza sativa; conditions: 2× and 4× of labeled rate (77 gmai/ha), four leaf stage
Source text: After screening a large mutant population, the line ML0831265-02283 also survived application of the ACCase herbicide quizalofop. The line was increased to obtain sufficient seed for larger trials to evaluate its tolerance to ACCase herbicides. The tolerance to ACCase herbicides in line ML0831265-02283 was validated by planting in the field plots (5 feet by 10 feet) of the line, the non-mutant parent line R0146, a second non-mutant line P1003, and the ACCase tolerant line ML0831265-01493. The ACCase herbicide quizalofop was applied at the four leaf stage at 0.5×, 1×, 2×, and 4× multiples of the labeled rate (77 gmai/ha). Twenty one days after the herbicide was applied the plots were evaluated for percent injury caused to the rice based on control plots that had no herbicide application (FIG. 6). The data confirms the tolerance of line ML0831265-02283 and it may even carry more tolerance than line ML0831265-01493 as shown by less injury at the 2× and 4× rates of quizalofop.

[3] = tested on: rice line RTA1 (ML0831265-01493, G2096S); assay: Field trait tolerance trial, FOP herbicides applied sequentially at 2-leaf and pre-flood; assay type: in vivo, Oryza sativa; conditions: for injury rates: RTA1, 2× application rates
Source text: (§1) FIG. 20A-FIG. 20D showing % Injury response data and plot pictures. Material tested included ACCase-inhibitor resistant combined ACCase lines (RTA1+RTA2), the RTA1 and the RTA2 singles and the stack RTA1+HPPDi+HPPDni. Two applications (at the 2 leaf and pre-flood stage) used the same rate for both applications. […] (all images taken 4 weeks post preflood app), FIG. 20D Plat order (left to right) RTA1, RTA2, RTA1+RTA2, RTA1+HPPD i+HPPDni, P1003, R0146.
(§2) FIG. 21A-FIG. 21E, show plot pictures and % Injury response for ACCase lines RTA1, RTA2, and the stacks RTA1+RTA2 as well as the stack […], when challenged by increasing doses of the main FOP herbicides. […] FIG. 21A untreated control, FIG. 21B 4× Quizalofop, FIG. 21C 4× Fluazifop, FIG. 21D 4× Propaquizafop. 4 weeks post preflood application. Plot order (left to right) G2096S, RTA2, G2096S+RTA2, G2096S+HPPD, P1003, R0146. FIG. 21E graphical representation.
Yield response after sequential 2-leaf and pre-flood quizalofop application.
(§3) Evaluation of the novel herbicide resistance genes, subject of this application, was conducted with a range of suitable herbicide doses that cover application rates typically used for rice farming operations while also taking into consideration possible deviations from the manufacturer-recommended doses. Considering 1×, the recommended manufacturers or best practice recommended dose, the most frequently evaluated additional doses are 2× and 4× with some experiments including other values.

[4] = tested on: common weeds in rice (grass weeds such as barnyard grass); assay: Weed control in rice crops; assay type: in vivo; conditions: in vivo
Protocol: FIGS. 5A and 5B are photographs of results of trait tolerance trials; weed control by mesotrione herbicide applied pre-planting was evaluated; the plots were planted with a hybrid of the HPPD tolerant line ML0831266-03093; just before planting, the plot on the right FIG. 5B received an application of mesotrione at 210 gmai/ha; the plot on the left FIG. 5A had no herbicide applied either pre-plant or post-emergence; pictures were taken four weeks after planting showing differences in weed appearance.
While testing the tolerant lines, the parent lines were also tested to serve as controls and as an indication of commercial potential as a red rice/wild weedy rice control strategy.
Rice is tolerant to certain ACCase inhibitor herbicides, for example cyhalofop is registered for use in rice. However other ACCase herbicides kill or severely injure rice to varying degrees. […] The applied rates of both types of herbicides giving the weed control are well within the tolerance level of the respective ACCase and HPPD tolerant lines including the combined lines carrying tolerance to both HPPD and ACCase herbicides.

[5] = tested on: mutant plants carrying RTA2 (R0146 X ML-083126502283F2); assay: MutMap F2 population herbicide response scoring; assay type: in vivo, Oryza sativa; conditions: 3 week old plants, scored 21 days after spray
Source text: A MutMap population was F2 plants from a cross between rice line R0146 X ML-083126502283F2. Pictures were taken 16 days post herbicide spray.
The herbicide Quizalofop was sprayed on the test fields. […] The plants were scored first at 16 days after the herbicide spray and then at 21 days after herbicide spray.
Mutant plants carrying the ‘unknown mutation RTA2’ were resistant. 3 week old plants were sprayed with Quizalofop and the herbicide response was scored 21 days after the spray. Susceptible symptoms were already observed 7 days after the Quizalofop spray, but scoring was done at 21 days. […] Few plants scored 3 (little damage on leaves or new leaf growth observed, and most likely plants will survive) or score 5 (half of the canopy is damaged and hard to predict whether the plants will survive or not), or score 7 (more damage on leaves, plants will not survive).

[6] = tested on: rice line RTA1+RTA2 (RL1225468, double homozygous stack); assay: Field trait tolerance trial, FOP herbicides applied sequentially at 2-leaf and pre-flood
Source text: as §1, §2, §3

[7] = tested on: rice lines RTA1, RTA2, RTA1+RTA2, RTA1+HPPD; assay: Field trial with increasing doses of FOP herbicides, all trait combinations; assay type: in vivo, Oryza sativa
Source text: 4 weeks post preflood application. […] FIG. 21E graphical representation.

CC(Oc1ccc(Oc2cnc3cc(Cl)ccc3n2)cc1)C(=O)O (stereo not shown) [Quizalofop]
tolerance compared with donor line ML0831265-01493 [1]: equivalent tolerance | percent injury compared with line ML0831265-01493 [2]: less injury | yield ([3]; RTA1, 1× and 2× application rates): good yield retention | injury rates [3]: ~40% | control of common grass weeds, such as barnyard grass, in rice [4]: good control | herbicide response [5]: resistant | injury ([6]; RTA1+RTA2, 4× label rate, 4 weeks post preflood application): no injury | injury ([6]; RTA1+RTA2, high application rates, FIG. 21 trial): minimal | maximum dose tolerated with no phytotoxicity ([6]; double homozygous RTA1-RTA2, 2-leaf stage): 80 oz/acre

CC(C)=NOCCOC(=O)[C@@H](C)Oc1ccc(Oc2cnc3cc(Cl)ccc3n2)cc1 [Propaquizafop]
rates of injury compared with other FOP herbicides ([7]; across all trait combinations): highest rates of injury | injury rates [3]: ~40%

CC(Oc1ccc(Oc2ccc(C(F)(F)F)cn2)cc1)C(=O)O (stereo not shown) [Fluazifop]
tolerance compared with donor line ML0831265-01493 [1]: equivalent tolerance | usability on the crop ([7]; rates of 2× or less, any trait combination containing RTA1): viable | rates of injury compared with the other FOP herbicides ([3]; RTA1): much lower than either of the other FOP herbicides | control of common grass weeds, such as barnyard grass, in rice [4]: good control | injury ([6]; RTA1+RTA2, 4×, FIG. 21 trial): minimal injury
